Reference: patent publication EP0717040A1, “Thiazine or thiazepine derivatives which inhibit NOS” (Japan Tobacco Inc., priority 1994, dated 1996)
Counter-ions that a name gives are not always drawn. Like-named read-outs stand apart in the source and are kept apart here.

Key:
[1] = molecular target: T1, constitutive NO synthase (cNOS) (Rattus norvegicus, UniProt P29476); experiment: Activity to inhibit constitutive NO synthase (cNOS) derived from rat cerebellum; conversion of [3H]-L-arginine to [3H]-L-citrulline; format: biochemical
T1 construct: cNOS was extracted from a rat cerebellum; from tissue; host or cells: rat cerebellum
Procedure: Activity to inhibit constitutive NO synthase (cNOS) derived from rat cerebellum
The inhibition activity was tested according to a method of P. A. Bush et al. (Biochem, Biophys, Res. Commun., 185, 960-966 (1992)), using [³H]-L-arginine as a substrate and taking the conversion of [³H]-L-arginine to [³H]-L-citrulline as an index of the enzyme activity.
The test was conducted as follows: First, cNOS was extracted from a rat cerebellum with a 50 mM Tris-HCl buffer solution (pH 7.4) which contains 0.1 mM EDTA (ethylenediamine tetraacetate), 0.1 mM EGTA (ethyleneglycol bis(β-aminoethyl ether)-tetraacetate), 0.5 mM DTT (dithiothreitol), 1 µM PMSF (phenylmethylsulfonyl fluoride), 1 µM bestatin A, and 1 µM leupeptin. To the cNOS thus extracted, a 50 mM Tris-HCl buffer solution (pH 7.4) containing 10 µM L-arginine, 10 µM NADPH, 2 mM calcium chloride and calmoduline (0.1 µg), together with a test compound and [³H]-L-arginine were added. The mixture was incubated for 10 minutes at 25°C. The reaction was terminated by adding 20 mM sodium acetate buffer solution (pH 5.5) containing 1 mM L-citrulline, 2 mM EDTA, and 0.2 mM EGTA. The reaction solution was passed through a cation-exchange resin. This eluate was combined with another eluate which was obtained thereafter by eluting with water. To the combined eluate, a liquid scintillation cocktail was further added and its radioactivity (A) was measured. At the same time, the radioactivity (B) with respect to the case where the test compound was not added and the radioactivity (C) with respect to the case where an enzyme fraction was not added, were respectively measured. Then, the rate of cNOS inhibition was calculated in accordance with the following equation. The concentration (IC₅₀), at which the test compound can inhibit 50 % of the enzyme activity, were also calculated. Inhibition rate (%) = {1 - (A - C/B - C)} × 100 [formula]

[2] = molecular target: T2, inducible NO synthase (iNOS) (Rattus norvegicus, UniProt Q06518); experiment: Activity to inhibit inducible NO synthase (iNOS) derived from rat macrophages; conversion of [3H]-L-arginine to [3H]-L-citrulline; format: biochemical; parameters: iNOS was extracted from the macrophages which have been treated with lipopolysaccharide and interferon-γ; endogenous in cells; host or cells: rat peritoneal macrophages treated with lipopolysaccharide and interferon-γ
Procedure: Activity to inhibit inducible NO synthase (iNOS) derived from rat macrophages
According to partly modified method of Y. Yui et al.(J. Biol. Chem., 266 (19), 12544-12547 (1991)), an iNOS fraction was prepared by applying lipopolysaccharide and interferon-γ to peritoneal macrophages. Thereafter, its enzymatic activity was measured based on the conversion of [³H]-L-arginine to [³H]-L-citrulline, in the same manner as in the case of cNOS.
To the iNOS thus extracted, a 50 mM Tris-HCl buffer solution (pH 7.4) containing 150 µM L-arginine, 5 mM NADPH, 5 mM DTT, 0.5 mM 5,6,7,8-tetrahydro-L-biopterin and 5 µM FAD was added together with a test compound and [³H]-L-arginine. The mixture was incubated for 30 minutes at 37°C. Thereafter, the reaction was terminated by adding a 25 mM sodium acetate buffer solution (pH 5.5) containing 1.25 mM L-citrulline, 2.5 mM EDTA and 0.25 mM EGTA. The reaction solution was passed through a cation-exchange resin. The obtained eluate was combined with the additional eluate obtained thereafter by eluting with water, and the radioactivity of the combined eluate was measured. The inhibition rate of the test compound on iNOS was calculated in the same manner as in Test 1. The concentration (IC₅₀) of the test compound required for inhibiting 50 % of the enzyme activity, were calculated.

[3] = molecular target: T3, endothelium nitric oxide synthase (eNOS) (Rattus norvegicus, UniProt Q62600); experiment: Blood pressure elevating activity in rat by inhibition of eNOS; format: in vivo; settings: dose to elevate mean blood pressure by 25 mmHg; anesthetized rat, administered via femoral vein
T3 construct: from tissue; host or cells: living anesthetized rat
Procedure: Blood pressure elevating activity in rat by inhibition of endothelium nitric oxide synthase (eNOS) A rat was anesthetized with by peritoneal injection of sodium barbital (300 mg/kg) and catheters were inserted into a femoral artery and a femoral vein. Blood pressure was measured through the catheter inserted in the femoral artery and a test compound was administered through the catheter inserted in the femoral vein. […]

neuronal NOS (nNOS) = molecular target: T4, neuronal NOS (nNOS) (Rattus norvegicus, UniProt P29476); experiment: Effect on rat cerebral ischemia model by inhibition of nNOS: reperfusion model; format: in vivo; settings: 10 minutes before occlusion, immediately before and 3 hours after reperfusion, infarct area after 48 hours
T4 construct: from tissue; host or cells: living rat (brain)
Excerpt: Effect on rat cerebral ischemia model by inhibition of neuronal NOS (nNOS): reperfusion model
A rat (weight: 300 g) was fasted overnight and a middle cerebral artery of the rat was occluded and then reperfused to prepare a cerebral ischemia model, according to the method of Koizumi et al. (Jpn. J. Stroke, 8, 1-8 (1986)). More specifically, a rat breathing naturally was immobilized under anesthesia with a laughing gas - oxygen mixed gas and halothane, and then, underwent cervical median dissection. A silicon-coated nylon thread was inserted into an internal carotid artery from a branched portion at which a right external carotid artery and the internal carotid artery is divided, thereby blocking the middle cerebral artery for 1.5 hours. Thereafter, the occluding of the middle cerebral artery was reperfused by removing a thread. After 48 hours, 6 coronal sections were prepared and stained by means of a triphenyltetrazolium chloride method. Non-stained portions were determined as infarct area. The test compound was intravenously injected 10 minutes before the occlusion of middle cerebral artery, immediately before, and 3 hours after reperfusion. The inhibitory effect of each compound was determined.

[4] = molecular target: T2, inducible NO synthase (iNOS); experiment: Effect on rat-paw carrageenin edema model by inhibition of iNOS; format: in vivo; settings: oral, 1 hour prior to carrageenin, paw volume 4 hours after induction; for ED50: rat, read-out: Suppression Effect (ED₅₀)
Procedure: Effect on rat-paw carrageenin edema model by inhibition of inducible NO synthase (iNOS)
To a rat's left leg, 1 % carrageenin solution was subcutaneously administered to induce a paw edema. 4 hours after the induction, paw volume was measured. A test compound was orally administered 1 hour prior to the carrageenin administration. The suppression effect of the test compound was determined.

[5] = cNOS extracted from rat cerebellum, 10 µM L-arginine, 10 minutes at 25°C, read-out: IC₅₀
[6] = iNOS from peritoneal macrophages treated with lipopolysaccharide and interferon-γ, 150 µM L-arginine, 30 minutes at 37°C, read-out: IC₅₀

Compound | IC50 [1] | IC50 [2] | IC50 [1, 5] | IC50 [2, 6] | other results
CCOC1CC(C)SC(N)=N1 (stereo not drawn) [Example 26, Bis(2-amino-4-ethoxy-5,6-dihydro-6-methyl-4H-1,3-thiazine) fumarate] | 80 nM | 90 nM | – | – | –
CCCC[C@H]1CCSC(N)=N1 [Example 6, (S)-2-amino-4-butyl-5,6-dihydro-4H-1,3-thiazine hydrobromide] | – | – | 30 nM | 70 nM | –
CCCOC1CCSC(N)=N1 (stereo not drawn) [Example 19, 2-amino-5,6-dihydro-4-propyloxy-4H-1,3-thiazine hydrochloride] | – | – | 40 nM | 30 nM | –
NC1=NC(O)CCS1 (stereo not drawn) [Example 17, 2-amino-5,6-dihydro-4-hydroxyl-4H-1,3-thiazine hydrochloride] | – | – | 20 nM | 50 nM | –
Br.CCC[C@@H]1CCSC(N)=N1 [Example 3, (R)-2-amino-5,6-dihydro-4-propyl-4H-1,3-thiazine hydrobromide] | – | – | – | – | ED₂₅ [3]: 0.2 mg/kg; Inhibitory Effect (neuronal NOS (nNOS); dose 10 µg/kg intravenously): ○ (10); Suppression Effect [4]: ○; ED50 [4]: 9 mg/kg
CC(C)OC1CCSC(N)=N1 (stereo not drawn) [Example 20, 2-amino-5,6-dihydro-4-isopropoxy-4H-1,3-thiazine fumarate] | – | – | 30 nM | 30 nM | –
CC(C)[C@H]1CCSC(N)=N1 [Example 2, (R)-2-amino-5,6-dihydro-4-isopropyl-4H-1,3-thiazine hydrobromide] | – | – | 300 nM | – | –
NC1=N[C@H](Cc2ccccc2)CCS1 [Example 9, (R)-2-amino-4-benzyl-5,6-dihydro-4H-1,3-thiazine hydrobromide] | 200 nM | – | – | – | –
CC1CC(OCc2ccccc2)N=C(N)S1 (stereo not drawn) [Example 27, Bis(2-amino-4-benzyloxy-5,6-dihydro-6-methyl-4H-1,3-thiazine), fumarate] | 400 nM | 400 nM | – | – | –
CCC[C@@H]1CCCSC(N)=N1 [Example 13, (R)-2-amino-4,5,6,7-tetrahydro-4-propyl-1,3-thiazepine hydrobromide] | – | – | 300 nM | – | –
CC1(C)CN=C(N)SC1 [Example 16, 2-amino-5,6-dihydro-5,5-dimethyl-4H-1,3-thiazine hydrobromide] | – | – | 200 nM | 500 nM | –
NC1=NC(OCc2ccccc2)CCS1 (stereo not drawn) [Example 22, Bis(2-amino-4-benzyloxy-5,6-dihydro-4H-1,3-thiazine) fumarate] | 100 nM | 600 nM | – | – | –
CCOC1CCSC(N)=N1 (stereo not drawn) [Example 21, Bis(2-amino-4-ethoxy-5,6-dihydro-4H-1,3-thiazine) fumarate] | 20 nM | 30 nM | – | – | ED₂₅ [3]: 0.06 mg/kg; Inhibitory Effect (neuronal NOS (nNOS); dose 3 µg/kg intravenously): ○ (3); Suppression Effect [4]: ○; ED50 [4]: 0.5 mg/kg
(R)-2-amino-4-benzyl-4,5,6,7-tetrahydro-1,3-thiazepine hydrobromide [Example 15] | – | – | 600 nM | – | –
CC(C)C[C@H]1CCSC(N)=N1 [Example 8, (S)-2-amino-5,6-dihydro-4-isobutyl-4H-1,3-thiazine hydrobromide] | – | – | 80 nM | 70 nM | –
CC(C)[C@@H]1CCSC(N)=N1 [Example 1, (S)-2-amino-5,6-dihydro-4-isopropyl-4H-1,3-thiazine hydrobromide] | – | – | 20 nM | 300 nM | –
CC(C)C[C@@H]1CCSC(N)=N1 [Example 7, (R)-2-amino-5,6-dihydro-4-isobutyl-4H-1,3-thiazine hydrobromide] | – | – | 40 nM | 70 nM | –
Br.COC[C@@H]1CCSC(N)=N1 [Example 30, (S)-2-amino-5,6-dihydro-4-methoxymethyl-4H-1,3-thiazine hydrobromide] | – | – | 30 nM | 20 nM | ED₂₅ [3]: 0.15 mg/kg; Inhibitory Effect (neuronal NOS (nNOS); dose 10 µg/kg intravenously): ○ (10)
CCC[C@H]1CCSC(N)=N1 [Example 4, (S)-2-amino-5,6-dihydro-4-propyl-4H-1,3-thiazine hydrobromide] | – | – | 30 nM | 20 nM | –
NC1=NCCS1 [Comparative Example 1, 2-aminothiazoline, reference compound] | – | 2000 nM | – | – | –
CC1(C)CCN=C(N)S1 [Example 29, 2-amino-5,6-dihydro-6,6-dimethyl-4H-1,3-thiazine hydrochloride] | – | – | 100 nM | 200 nM | –
CCCC[C@@H]1CCSC(N)=N1 [Example 5, (R)-2-amino-4-butyl-5,6-dihydro-4H-1,3-thiazine hydrobromide] | – | – | 30 nM | 40 nM | –
NC1=N[C@@H](Cc2ccccc2)CCS1 [Example 10, (S)-2-amino-4-benzyl-5,6-dihydro-4H-1,3-thiazine hydrobromide] | 30 nM | 600 nM | – | – | –
NC1=NC(OCCc2ccccc2)CCS1 (stereo not drawn) [Example 25, Bis(2-amino-5,6-dihydro-4-(2-phenyl)ethyloxy-4H-1,3-thiazine) fumarate] | 100 nM | 300 nM | – | – | –
COC1CCSC(N)=N1 (stereo not drawn) [Example 18, Bis(2-amino-5,6-dihydro-4-methoxy-4H-1,3-thiazine) fumarate] | 20 nM | 10 nM | – | – | –
CC1CCCSC(N)=N1 (stereo not drawn) [Example 12, Bis(2-amino-4,5,6,7-tetrahydro-4-methyl-1,3-thiazepine) fumarate] | 100 nM | 70 nM | – | – | –
CC1CN=C(N)SC1 (stereo not drawn) [Example 28, 2-amino-5,6-dihyro-5-methyl-4H-1,3-thiazine hydrobromide] | 100 nM | 200 nM | – | – | –
